Results published in patent US7511077B2, “Diamine calcium channel blockers” (Neuromed Pharmaceuticals Ltd., priority 2005, dated 2009).
Where two headings read alike, the source gives them in different places.

How the values were obtained:
[1] = system: Rings from Rat Mesenteric Artery maximally pre-contracted with PE; assay: Relaxation of pre-contracted rings from rat mesenteric artery; conditions: compound at 10^−5 M, rings maximally pre-contracted with PE at 10^−4 M, read-out: Mesenteric artery Max % relax
Experimental: Sprague-Dawley rats (350-400 g, Charles River Canada) were anaesthetized with sodium pentobarbital (60 mg/kg). The mesenteric arteries were removed and suspended in a tissue bath filled with Krebs-Henseleit solution aerated with 95% O2 and 5% CO2 at 37° C. The tissues were equilibrated for one hour prior to the construction of a concentration-response curve to phenylephrine (PE). Following recovery of the response to PE, a second curve to PE was constructed at 5 min after the addition of a calcium channel blocker (n=2-8, each from a separate rat) or the vehicle (50 μl of equimolar DMSO). After recovery, a third and fourth curve to PE were constructed after addition of a higher concentration of blocker or vehicle. The protocol was repeated using portal veins (n=4, each from a separate rat).

[2] = target: T1, rat brain N-type calcium channel subunits (α1B+α2δ+β1b cDNA subunits) (Rattus norvegicus, UniProt Q02294); assay: N-type calcium channel block, whole cell patch clamp in HEK 293 cells; format: cell-based; conditions: holding potential −80 mV to +10 mV
T1 construct: expressed in transfected cells; host or cells: HEK 293
Experimental: N-type calcium channel blocking activity was assayed in human embryonic kidney cells, HEK 293, stably transfected with the rat brain N-type calcium channel subunits (α1B+α2δ+β1b cDNA subunits). Alternatively, N-type calcium channels (α1B+α2δ+β1b cDNA subunits), L-type channels (α1C+α2δ+β1b cDNA subunits) and P/Q-type channels (α1A+α2δ+β1b cDNA subunits) were transiently expressed in HEK 293 cells. Briefly, cells were cultured in Dulbecco's modified eagle medium (DMEM) supplemented with 10% fetal bovine serum, 200 U/ml penicillin and 0.2 mg/ml streptomycin at 37° C. with 5% CO2. At 85% confluency cells were split with 0.25% trypsin/1 mM EDTA and plated at 10% confluency on glass coverslips. At 12 hours the medium was replaced and the cells transiently transfected using a standard calcium phosphate protocol and the appropriate calcium channel cDNA's. Fresh DMEM was supplied and the cells transferred to 28° C./5% CO2. Cells were incubated for 1 to 2 days prior to whole cell recording.
Whole cell patch clamp experiments were performed using an Axopatch 200B amplifier (Axon Instruments, Burlingame, Calif.) linked to a personal computer equipped with pCLAMP software. The external and internal recording solutions contained, respectively, 5 mM BaCl2, 10 mM MgCl2, 10 mM HEPES, 40 mM TEACl, 10 mM glucose, 87.5 mM CsCl (pH 7.2) and 108 mM CsMS, 4 mM MgCl2, 9 mM EGTA, 9 mM HEPES (pH 7.2). Currents were typically elicited from a holding potential of −80 mV to +10 mV using Clampex software (Axon Instruments). Typically, currents were first elicited with low frequency stimulation (0.067 Hz) and allowed to stabilize prior to application of the compounds. The compounds were then applied during the low frequency pulse trains for two to three minutes to assess tonic block, and subsequently the pulse frequency was increased to 0.2 Hz to assess frequency dependent block. Data were analyzed using Clampfit (Axon Instruments) and SigmaPlot 4.0 (Jandel Scientific).

[3] = target: T2, human α1G T-type channels (Homo sapiens, UniProt O43497); assay: T-type calcium channel block, patch clamp in HEK cell lines; format: cell-based
T2 construct: expressed in transfected cells; host or cells: HEK cell lines
Experimental: Standard patch-clamp techniques were employed to identify blockers of T-type currents. Briefly, previously described HEK cell lines stably expressing human α1G T-type channels were used for all the recordings (passage #: 4-20, 37° C., 5% CO2). To obtain T-type currents, plastic dishes containing semi-confluent cells were positioned on the stage of a ZEISS AXIOVERT S100 microscope after replacing the culture medium with external solution (see below). Whole-cell patches were obtained using pipettes (borosilicate glass with filament, O.D.: 1.5 mm, I.D.: 0.86 mm, 10 cm length), fabricated on a SUTTER P-97 puller with resistance values of ˜5 MΩ (see below for internal solution).
T-type currents were reliably obtained by using two voltage protocols: • (1) “non-inactivating”, and (2) “inactivation”
In the non-inactivating protocol, the holding potential is set at −110 mV and with a pre-pulse at −100 mV for 1 second prior to the test pulse at −40 mV for 50 ms. In the inactivation protocol, the pre-pulse is at approximately −85 mV for 1 second, which inactivates about 15% of the T-type channels.
Test compounds were dissolved in external solution, 0.1-0.01% DMSO. After ˜10 min rest, they were applied by gravity close to the cell using a WPI microfil tubing. The “non-inactivated” pre-pulse was used to examine the resting block of a compound. The “inactivated” protocol was employed to study voltage-dependent block. However, the initial data shown below were mainly obtained using the non-inactivated protocol only. IC50 values are shown for various compounds of the invention in Table 5.

[4] = system: Rings from Rat Portal Vein maximally pre-contracted with PE; assay: Relaxation of pre-contracted rings from rat portal vein; conditions: compound at 10^−5 M, rings maximally pre-contracted with PE at 10^−4 M, read-out: Portal vein Max % relax
[5] = system: T-type over L-type channels; conditions: cited from earlier work
[6] = Blood pressure reduction in SHR; format: in vivo
[7] = low frequency stimulation 0.067 Hz (tonic block), read-out: IC50 @ 0.067 Hz
[8] = pulse frequency 0.2 Hz (frequency dependent block), read-out: IC50 @ 0.2 Hz
[9] = non-inactivating protocol, pre-pulse −100 mV (resting block), read-out: IC50 @ −100 mV
[10] = −80 mV (inactivation protocol, voltage-dependent block), read-out: IC50 @ −80 mV

T1 sequence (Q02294 whole entry): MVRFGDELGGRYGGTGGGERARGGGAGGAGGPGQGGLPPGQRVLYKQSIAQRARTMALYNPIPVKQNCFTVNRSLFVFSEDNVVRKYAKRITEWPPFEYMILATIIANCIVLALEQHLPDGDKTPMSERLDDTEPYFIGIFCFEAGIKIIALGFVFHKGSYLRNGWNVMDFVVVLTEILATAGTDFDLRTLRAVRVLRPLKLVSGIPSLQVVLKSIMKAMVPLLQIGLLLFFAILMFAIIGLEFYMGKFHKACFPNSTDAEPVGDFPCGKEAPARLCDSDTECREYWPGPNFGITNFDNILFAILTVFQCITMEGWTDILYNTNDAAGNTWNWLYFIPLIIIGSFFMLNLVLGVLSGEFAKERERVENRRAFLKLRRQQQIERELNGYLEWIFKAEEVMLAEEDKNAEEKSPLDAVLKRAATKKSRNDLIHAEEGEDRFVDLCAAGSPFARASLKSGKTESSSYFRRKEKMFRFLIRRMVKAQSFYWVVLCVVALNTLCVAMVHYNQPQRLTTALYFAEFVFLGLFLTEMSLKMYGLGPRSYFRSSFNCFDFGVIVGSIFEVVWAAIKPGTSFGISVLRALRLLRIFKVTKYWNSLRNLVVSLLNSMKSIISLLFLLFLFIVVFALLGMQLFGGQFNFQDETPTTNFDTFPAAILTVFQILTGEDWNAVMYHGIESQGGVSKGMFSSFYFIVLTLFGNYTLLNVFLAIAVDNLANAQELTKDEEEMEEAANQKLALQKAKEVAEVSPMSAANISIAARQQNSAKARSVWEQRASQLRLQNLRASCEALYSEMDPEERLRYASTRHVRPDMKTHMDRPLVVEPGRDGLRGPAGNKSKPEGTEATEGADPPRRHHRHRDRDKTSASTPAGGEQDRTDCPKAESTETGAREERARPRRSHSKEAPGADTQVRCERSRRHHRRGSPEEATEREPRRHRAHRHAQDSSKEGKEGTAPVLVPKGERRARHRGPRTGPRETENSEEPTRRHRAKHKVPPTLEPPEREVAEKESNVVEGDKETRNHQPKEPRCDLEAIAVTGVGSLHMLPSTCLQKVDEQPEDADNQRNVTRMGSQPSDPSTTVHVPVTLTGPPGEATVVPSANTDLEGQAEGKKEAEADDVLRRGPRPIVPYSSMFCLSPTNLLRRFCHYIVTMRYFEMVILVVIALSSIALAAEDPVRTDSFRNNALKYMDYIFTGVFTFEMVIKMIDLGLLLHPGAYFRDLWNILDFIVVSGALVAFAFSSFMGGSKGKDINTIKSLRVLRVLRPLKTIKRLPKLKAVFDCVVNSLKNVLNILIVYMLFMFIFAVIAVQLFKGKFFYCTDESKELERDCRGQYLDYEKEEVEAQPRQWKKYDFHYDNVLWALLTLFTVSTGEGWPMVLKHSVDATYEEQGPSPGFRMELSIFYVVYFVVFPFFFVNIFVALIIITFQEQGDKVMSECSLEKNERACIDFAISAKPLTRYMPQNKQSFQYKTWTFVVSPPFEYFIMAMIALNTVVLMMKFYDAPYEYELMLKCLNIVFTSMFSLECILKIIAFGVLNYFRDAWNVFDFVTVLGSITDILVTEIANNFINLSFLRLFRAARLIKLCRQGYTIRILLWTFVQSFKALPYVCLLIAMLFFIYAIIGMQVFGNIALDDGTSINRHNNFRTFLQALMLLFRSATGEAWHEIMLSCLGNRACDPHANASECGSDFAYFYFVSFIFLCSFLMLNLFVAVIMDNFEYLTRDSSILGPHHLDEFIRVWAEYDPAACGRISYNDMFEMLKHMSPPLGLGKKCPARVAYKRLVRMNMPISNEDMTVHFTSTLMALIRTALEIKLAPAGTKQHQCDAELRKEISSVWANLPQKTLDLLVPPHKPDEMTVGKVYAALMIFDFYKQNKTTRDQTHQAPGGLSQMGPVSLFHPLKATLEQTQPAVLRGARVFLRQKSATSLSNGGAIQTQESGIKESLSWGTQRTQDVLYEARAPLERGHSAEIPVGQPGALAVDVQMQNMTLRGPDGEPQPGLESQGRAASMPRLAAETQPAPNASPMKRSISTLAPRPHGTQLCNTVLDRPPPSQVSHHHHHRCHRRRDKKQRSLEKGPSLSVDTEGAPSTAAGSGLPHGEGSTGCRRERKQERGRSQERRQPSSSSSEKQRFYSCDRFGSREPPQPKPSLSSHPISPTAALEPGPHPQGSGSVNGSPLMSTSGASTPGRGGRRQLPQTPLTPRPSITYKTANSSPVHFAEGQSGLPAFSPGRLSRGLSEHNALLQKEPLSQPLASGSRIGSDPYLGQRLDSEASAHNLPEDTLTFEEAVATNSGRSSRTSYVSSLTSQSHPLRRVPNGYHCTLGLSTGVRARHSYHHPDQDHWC
T2 sequence (O43497 whole entry): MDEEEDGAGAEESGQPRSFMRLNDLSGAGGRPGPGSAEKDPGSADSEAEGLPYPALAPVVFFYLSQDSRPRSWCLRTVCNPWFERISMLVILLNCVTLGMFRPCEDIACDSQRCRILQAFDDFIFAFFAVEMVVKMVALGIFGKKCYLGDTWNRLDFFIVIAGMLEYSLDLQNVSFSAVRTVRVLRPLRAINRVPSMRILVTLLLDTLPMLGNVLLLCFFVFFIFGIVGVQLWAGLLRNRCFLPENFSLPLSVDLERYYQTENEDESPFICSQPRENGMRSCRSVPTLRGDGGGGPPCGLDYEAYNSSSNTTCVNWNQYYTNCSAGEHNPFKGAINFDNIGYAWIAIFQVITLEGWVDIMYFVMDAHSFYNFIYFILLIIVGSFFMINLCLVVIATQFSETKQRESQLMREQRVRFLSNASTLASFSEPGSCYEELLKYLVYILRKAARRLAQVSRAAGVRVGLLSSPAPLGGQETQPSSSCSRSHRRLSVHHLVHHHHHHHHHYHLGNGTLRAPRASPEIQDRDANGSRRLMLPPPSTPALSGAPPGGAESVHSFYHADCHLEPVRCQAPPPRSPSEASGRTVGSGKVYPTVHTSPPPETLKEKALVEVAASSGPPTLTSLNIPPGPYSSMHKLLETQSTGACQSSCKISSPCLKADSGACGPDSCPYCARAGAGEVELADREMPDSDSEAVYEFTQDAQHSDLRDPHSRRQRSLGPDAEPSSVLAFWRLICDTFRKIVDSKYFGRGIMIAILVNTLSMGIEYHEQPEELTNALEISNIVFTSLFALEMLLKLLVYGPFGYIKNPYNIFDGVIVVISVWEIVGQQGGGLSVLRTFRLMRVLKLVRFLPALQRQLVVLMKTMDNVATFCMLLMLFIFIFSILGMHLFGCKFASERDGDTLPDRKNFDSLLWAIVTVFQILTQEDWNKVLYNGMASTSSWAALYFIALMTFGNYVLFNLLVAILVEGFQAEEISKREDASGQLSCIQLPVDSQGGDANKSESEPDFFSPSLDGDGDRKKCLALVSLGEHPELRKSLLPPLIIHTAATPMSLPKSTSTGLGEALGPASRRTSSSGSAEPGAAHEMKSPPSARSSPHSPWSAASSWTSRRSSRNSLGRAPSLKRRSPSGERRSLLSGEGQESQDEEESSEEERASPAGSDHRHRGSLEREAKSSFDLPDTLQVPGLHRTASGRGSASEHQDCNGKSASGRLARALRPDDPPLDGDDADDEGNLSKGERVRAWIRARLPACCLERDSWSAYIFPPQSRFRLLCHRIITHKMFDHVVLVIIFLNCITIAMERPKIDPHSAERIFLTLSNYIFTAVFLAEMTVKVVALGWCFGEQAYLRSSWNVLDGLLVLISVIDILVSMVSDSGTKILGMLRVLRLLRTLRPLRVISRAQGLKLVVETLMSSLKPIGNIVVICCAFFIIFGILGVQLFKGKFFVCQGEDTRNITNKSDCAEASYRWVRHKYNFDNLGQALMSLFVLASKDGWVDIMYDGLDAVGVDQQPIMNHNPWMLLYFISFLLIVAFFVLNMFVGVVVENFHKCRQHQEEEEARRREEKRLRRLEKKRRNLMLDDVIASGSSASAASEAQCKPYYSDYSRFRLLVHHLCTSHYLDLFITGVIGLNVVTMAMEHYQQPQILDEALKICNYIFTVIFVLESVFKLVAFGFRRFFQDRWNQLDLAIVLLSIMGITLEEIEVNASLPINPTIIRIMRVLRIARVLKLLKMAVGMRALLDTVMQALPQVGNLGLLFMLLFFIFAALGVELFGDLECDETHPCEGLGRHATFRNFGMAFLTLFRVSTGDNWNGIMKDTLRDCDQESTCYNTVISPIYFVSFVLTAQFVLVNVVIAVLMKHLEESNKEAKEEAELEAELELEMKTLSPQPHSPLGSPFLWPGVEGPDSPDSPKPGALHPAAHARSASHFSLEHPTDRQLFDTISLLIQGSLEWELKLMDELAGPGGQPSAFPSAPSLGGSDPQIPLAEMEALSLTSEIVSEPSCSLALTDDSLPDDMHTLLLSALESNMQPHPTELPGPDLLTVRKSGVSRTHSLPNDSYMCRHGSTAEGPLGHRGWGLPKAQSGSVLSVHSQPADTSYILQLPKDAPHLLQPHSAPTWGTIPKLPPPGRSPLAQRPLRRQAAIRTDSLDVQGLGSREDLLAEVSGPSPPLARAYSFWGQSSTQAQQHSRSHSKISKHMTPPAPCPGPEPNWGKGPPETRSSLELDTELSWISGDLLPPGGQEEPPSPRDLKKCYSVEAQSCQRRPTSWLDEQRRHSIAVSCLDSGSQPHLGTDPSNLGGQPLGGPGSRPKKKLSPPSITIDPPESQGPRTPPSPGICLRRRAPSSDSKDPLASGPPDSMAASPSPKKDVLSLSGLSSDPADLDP

Compound | Emax at 10 µM [1] | IC50 [2, 7] | IC50 [2, 8] | IC50 [3, 9] | IC50 [3, 10] | Emax at 10 µM [4] | selective for T-type over L-type channels [5] | BP SHR at 4 hrs % reduction [6]
O=C(CC(c1ccccc1)c1ccccc1)NCC#CCN(Cc1ccccn1)Cc1ccccn1 [Compound P32, N-[4-(Bis-pyridin-2-ylmethyl-amino)-but-2-ynyl]-3,3-diphenyl-propionamide] | 50% | 2200 nM | 568 nM | 1800 nM | 1100 nM | 49% | – | –
O=C(CCCCC(c1ccc(F)cc1)c1ccc(F)cc1)NC/C=C/CNC(=O)c1cc(C(F)(F)F)cc(C(F)(F)F)c1 [Compound P15, N-{(E)-4-[6,6-Bis-(4-fluoro-phenyl)-hexanoylamino]-but-2-enyl}-3,5-bis-trifluoromethyl-benzamide] | 9% | 19 nM | 127 nM | 54 nM | 21 nM | – | – | –
CC(C)(C)c1ccc(C(=O)NC/C=C\CNC(=O)CCCCC(c2ccc(F)cc2)c2ccc(F)cc2)cc1 [Compound P4, N-{(Z)-4-[6,6-Bis-(4-fluoro-phenyl)-hexanoylamino]-but-2-enyl}-4-tert-butyl-benzamide] | 8% | 86 nM | 59 nM | 38 nM | 12 nM | – | – | –
Cc1ccc(C(=O)NCC#CCNC(=O)CCCCC(c2ccc(F)cc2)c2ccc(F)cc2)cc1 [Compound P26, N-{4-[6,6-Bis-(4-fluoro-phenyl)-hexanoylamino]-but-2-ynyl}-4-methyl-benzamide] | 40% | 144 nM | 40 nM | 336 nM | 202 nM | 34% | – | –
CC(C)c1ccc(C(=O)NCCCCNC(=O)CCCCC(c2ccc(F)cc2)c2ccc(F)cc2)cc1 [Compound P37, N-{4-[6,6-Bis-(4-fluoro-phenyl)-hexanoylamino]-butyl}-4-isopropyl-benzamide] | 42% | 310 nM | 300 nM | 31 nM | 8 nM | 51% | – | –
COCC(=O)O[C@]1(CCN(C)CCCc2nc3ccccc3[nH]2)CCc2cc(F)ccc2[C@@H]1C(C)C [Mibefradil] | – | – | – | – | – | – | 10-30 fold | –
O=C(CCCCC(c1ccc(F)cc1)c1ccc(F)cc1)NCC#CCNC(=O)c1ccc(Cl)cc1 [Compound P28, N-{4-[6,6-Bis-(4-fluoro-phenyl)-hexanoylamino]-but-2-ynyl}-4-chloro-benzamide] | 61% | 360 nM | 360 nM | 72 nM | 29 nM | 25% | – | 13 n = 4%
O=C(CCCCC(c1ccc(F)cc1)c1ccc(F)cc1)NCC#CCNC(=O)c1ccc(F)cc1 [Compound P29, N-{4-[6,6-Bis-(4-fluoro-phenyl)-hexanoylamino]-but-2-ynyl}-4-fluoro-benzamide] | 63% | 290 nM | 290 nM | 696 nM | 101 nM | 51% | – | –
CC(C)(C)c1ccc(C(=O)NCC#CCNC(=O)CCCCC(c2ccc(F)cc2)c2ccc(F)cc2)cc1 [Compound P24, N-{4-[6,6-Bis-(4-fluoro-phenyl)-hexanoylamino]-but-2-ynyl}-4-tert-butyl-benzamide] | 0% | – | – | – | – | – | – | –
COc1ccc(C(=O)NCC#CCNC(=O)CCCCC(c2ccc(F)cc2)c2ccc(F)cc2)cc1 [Compound P27, N-{4-[6,6-Bis-(4-fluoro-phenyl)-hexanoylamino]-but-2-ynyl}-4-methoxy-benzamide] | 41% | – | – | – | – | 51% | – | –
COc1c(C(C)(C)C)cc(C(=O)NCC#CCNC(=O)CCCCC(c2ccc(F)cc2)c2ccc(F)cc2)cc1C(C)(C)C [Compound P23, N-{4-[6,6-Bis-(4-fluoro-phenyl)-hexanoylamino]-but-2-ynyl}-3,5-di-tert-butyl-4-methoxy-benzamide] | 0% | – | – | – | – | – | – | –
O=C(CCCCC(c1ccc(F)cc1)c1ccc(F)cc1)NC/C=C\CNC(=O)c1cc(C(F)(F)F)cc(C(F)(F)F)c1 [Compound P5, N-{(Z)-4-[6,6-Bis-(4-fluoro-phenyl)-hexanoylamino]-but-2-enyl}-3,5-bis-trifluoromethyl-benzamide] | 10% | 74 nM | 46 nM | 27 nM | 7 nM | – | – | –
O=C(CCCCC(c1ccc(F)cc1)c1ccc(F)cc1)NC/C=C\CNC(=O)COc1ccc(Cl)cc1 [Compound P6, 6,6-Bis-(4-fluoro-phenyl)-hexanoic acid{(Z)-4-[2-(4-chloro-phenoxy)-acetylamino]-but-2-enyl}-amide] | 35% | 58 nM | 27 nM | 128 nM | 67 nM | 28% | – | –
O=C(CCCCC(c1ccc(F)cc1)c1ccc(F)cc1)NC/C=C\CNC(=O)c1ccc(F)cc1 [Compound P10, N-{(Z)-4-[6,6-Bis-(4-fluoro-phenyl)-hexanoylamino]-but-2-enyl}-4-fluoro-benzamide] | 35% | 182 nM | 112 nM | 20 nM | 6 nM | 38% | – | –
